In patent US20240415819A1, “MACROCYCLIC COMPOUNDS AS PROTEASOME SUBUNIT BETA TYPE-5 INHIBITORS” (Lead Discovery Center GmbH, priority 2021, published 2024):

Columns and labels:
[1] = target: T1, β5 subunit of the human constitutive proteasome (CPS) (Homo sapiens, UniProt P28074); assay: β5 inhibition assay, human constitutive proteasome (Suc-LLVY-AMC); type: biochemical; conditions: IC50 class, Suc-LLVY-AMC substrate
T1 construct: purchased Boston Biochem E-360
Description: The enzymatic activity of the β5 subunit of the human constitutive proteasome (CPS) is analyzed. In another assay, which differs from the assay of the human constitutive proteasome only in using the human immunoproteasome (IPS) the enzymatic activity of the β5 subunit of the human immunoproteasome (IPS) is analyzed. […] Inhibition is indicated as IC50 [nM] (“-”=not measured).

[2] = target: T2, β5 subunit of the human immunoproteasome (IPS) (Homo sapiens, UniProt P28062); assay: β5 inhibition assay, human immunoproteasome (Suc-LLVY-AMC); type: biochemical; conditions: IC50 class, Suc-LLVY-AMC substrate
T2 construct: purchased Boston Biochem E-370
Summary of the method: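 β5 activity is read as liberated AMC fluorescence (355/460 nm) after 4 h dark reaction at RT with 22.6 μM Suc-LLVY-AMC, stopped by 1 μM bortezomib. Beforehand, 1 nM human IPS and compound sat 10 min at RT in HEPES pH 7.5 buffer containing NaCl, 0.02% SDS and DTT.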

[3] = tested on: Hs 746T (human gastric carcinoma cell line); assay: 48 hr CTG viability assay, Hs 746T; type: cell-based; conditions: Hs746T, 48 hr CTG, read-out: Hs 746T IC50
Summary of the method: (§1)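 Growth inhibition by compound over 48 h; IC50 (nM) derived from duplicate CellTiter-Glo luminescence readings across 0.0015–10 uM.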

[4] = tested on: MM1 S (B lymphoblast cell line); assay: 48 hr CTG viability assay, MM1S; type: cell-based; conditions: Homo sapiens, 48 hr CTG, read-out: MM1S IC50
Summary of the method: as §1

[5] = tested on: A549 (human lung carcinoma cell line); assay: Glo assay of A549 cells (Table 3; ProteasomeGlo plating scheme); type: cell-based; conditions: Homo sapiens; A549 cells; read-out: PGLo A549
Summary of the method: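 Luminescent read-out of cellular chymotrypsin-like proteasome activity: cells exposed to compound 105 min at 37° C., 5% CO2, then given Suc-LLVY-Glo reagent, shaken 2-5 min and kept dark 10-15 min before reading. Values are IC50 [nM].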

[6] = tested on: RPMI 8226 (B lymphocyte cell line, multiple myeloma); assay: 48 hr CTG viability assay, RPMI 8226; type: cell-based; conditions: Homo sapiens, RPMI-8226; 48 hr CTG; read-out: RPMI-8226 IC50
Summary of the method: as §1

Cc1ccc2cc1CNC(=O)[C@H](CCc1ccccc1)NC(=O)[C@@H](NC(=O)CCNC1CC3(CCC3)C1)CC(=O)N1CCCC(CCO2)C1 (stereo partly drawn) [Compound 657, N-((9S,12S)-5^4-methyl-8,11,14-trioxo-9-phenethyl-4-oxa-7,10-diaza-1(3,1)-piperidina-5(1,3)-benzenacyclotetradecaphane-12-yl)-3-(spiro[3.3]heptan-2-ylamino)propanamide]
IC50 [1]: < 100 nM | IC50 [2]: < 100 nM | IC50 [3]: < 100 nM | IC50 [4]: < 100 nM | IC50 [5]: < 100 nM | IC50 [6]: < 100 nM

Cc1ccc2cc1CNC(=O)[C@H](CCc1ccccc1)NC(=O)[C@@H](NC(=O)CCNC(=O)c1ccc(C3CCCCC3)cc1)CC(=O)N1CCCC(CCO2)C1 (stereo partly drawn) [Compound 656, 4-cyclohexyl-N-(3-(((9S,12S)-5^4-methyl-8,11,14-trioxo-9-phenethyl-4-oxa-7,10-diaza-1(3,1)-piperidina-5(1,3)-benzenacyclotetradecaphane-12-yl)amino)-3-oxopropyl)benzamide]
IC50 [1]: < 100 nM | IC50 [2]: < 100 nM | IC50 [3]: < 100 nM | IC50 [4]: < 100 nM | IC50 [5]: < 100 nM | IC50 [6]: < 100 nM

Cc1ccc2cc1CNC(=O)[C@H](CCc1ccccc1)NC(=O)[C@@H](NC(=O)CCNC(=O)c1ccc(N3CCOCC3)cc1)CC(=O)N1CCCC(CCO2)C1 (stereo partly drawn) [Compound 604, N-(3-(((9S,12S)-5^4-methyl-8,11,14-trioxo-9-phenethyl-4-oxa-7,10-diaza-1(3,1)-piperidina-5(1,3)-benzenacyclotetradecaphane-12-yl)amino)-3-oxopropyl)-4-morpholinobenzamide]
IC50 [1]: < 100 nM | IC50 [2]: < 100 nM | IC50 [3]: < 100 nM | IC50 [4]: < 100 nM | IC50 [5]: < 100 nM | IC50 [6]: < 100 nM

Cc1ccc2cc1CNC(=O)[C@H](CCc1ccncc1)NC(=O)[C@@H](NC(=O)Cc1ccccc1F)CC(=O)N1CCCC(CCO2)C1 (stereo partly drawn) [Compound 737, 2-(2-fluorophenyl)-N-((9S,12S)-5^4-methyl-8,11,14-trioxo-9-(2-(pyridin-4-yl)ethyl)-4-oxa-7,10-diaza-1(3,1)-piperidina-5(1,3)-benzenacyclotetradecaphane-12-yl)acetamide]
IC50 [1]: < 100 nM | IC50 [2]: < 100 nM | IC50 [3]: < 100 nM | IC50 [4]: < 100 nM | IC50 [5]: < 100 nM | IC50 [6]: < 100 nM

Cc1ccc2cc1CNC(=O)[C@H](CCc1ccccc1)NC(=O)[C@@H](NC(=O)C1(C)CNC1)CC(=O)N1CCCC(CCO2)C1 (stereo partly drawn) [Compound 715, 3-methyl-N-((9S,12S)-5^4-methyl-8,11,14-trioxo-9-phenethyl-4-oxa-7,10-diaza-1(3,1)-piperidina-5(1,3)-benzenacyclotetradecaphane-12-yl)azetidine-3-carboxamide]
IC50 [1]: < 100 nM | IC50 [2]: < 100 nM | IC50 [3]: 100 to 500 nM | IC50 [4]: < 100 nM | IC50 [5]: < 100 nM | IC50 [6]: < 100 nM

Cc1ccc2cc1CNC(=O)[C@H](CCc1ccccc1)NC(=O)[C@@H](NC(=O)C13CC(N)(C1)C3)CC(=O)N1CCCC(CCO2)C1 (stereo partly drawn) [Compound 662, 3-amino-N-((9S,12S)-5^4-methyl-8,11,14-trioxo-9-phenethyl-4-oxa-7,10-diaza-1(3,1)-piperidina-5(1,3)-benzenacyclotetradecaphane-12-yl)bicyclo[1.1.1]pentane-1-carboxamide]
IC50 [1]: < 100 nM | IC50 [2]: < 100 nM | IC50 [3]: < 100 nM | IC50 [4]: < 100 nM | IC50 [5]: < 100 nM | IC50 [6]: < 100 nM

Cc1ccc2cc1CNC(=O)[C@H](CCc1ccccc1)NC(=O)[C@@H](NC(=O)CCOCC1CC3CCC1C3)CC(=O)N1CCCC(CCO2)C1 (stereo partly drawn) [Compound 614, 3-(bicyclo[2.2.1]heptan-2-ylmethoxy)-N-((9S,12S)-5^4-methyl-8,11,14-trioxo-9-phenethyl-4-oxa-7,10-diaza-1(3,1)-piperidina-5(1,3)-benzenacyclotetradecaphane-12-yl)propanamide]
IC50 [1]: < 100 nM | IC50 [2]: < 100 nM | IC50 [3]: < 100 nM | IC50 [4]: < 100 nM | IC50 [5]: < 100 nM | IC50 [6]: < 100 nM
